Laboratory results from patent US20230312481A1, “SUBSTITUTED (PHTHALAZIN-1-YLMETHYL)UREAS, SUBSTITUTED N-(PHTHALAZIN-1-YLMETHYL)AMIDES, AND ANALOGUES THEREOF” (priority 2020, published 2023).
Where two headings read alike, the source gives them in different places.

System: HBV rcDNA in HepDE19 cells
Assay: HepDE19 assay with bDNA quantitation of HBV rcDNA
Type: cell-based, hepatitis B virus
Conditions: read-out: DE-19bDNA EC50
Protocol: HepDE19 Assay With bDNA Quantitation of HBV rcDNA
HepDE19 (50,000 cells/well) were plated in 96-well collagen-coated tissue-culture treated microtiter plates in DMEM/F12 medium supplemented with 10% fetal bovine serum, 1% penicillin-streptomycin and 1 µg/mL tetracycline and incubated in a humidified incubator at 37° C. and 5% CO2 overnight. Next day, the cells were switched to fresh medium without tetracycline and incubated for 4 hours at 37° C. and 5% CO2. […] The final DMSO concentration in the assay was 0.5%. The plates were incubated for 7 days in a humidified incubator at 37° C. and 5% CO2. Following a 7 day-incubation, the level of rcDNA present in the inhibitor-treated wells was measured using a Quantigene 2.0 bDNA assay kit (Affymetrix, Santa Clara, CA) with HBV specific custom probe set and manufacturers instructions. Concurrently, the effect of compounds on cell viability was assessed using replicate plates, plated at a density of 5,000 cells/well and incubated for 4 days, to determine the ATP content as a measure of cell viability using the cell-titer glo reagent (CTG; Promega Corporation, Madison, WI) as per manufacturer’s instructions.
Representative compounds of the disclosure were tested for their abilities to inhibit formation of relaxed circular DNA (rcDNA) in a HepDE19 assay, as described elsewhere herein.

[1] = HepDE19 cells, 7 day incubation, rcDNA measured by Quantigene 2.0 bDNA assay, top concentration 25 µM
[2] = Hepatitis B virus, HepDE19, 168 h, HepDE19 cells, 7 day incubation, rcDNA measured by Quantigene 2.0 bDNA assay, top concentration 25 µM
[3] = Hepatitis B virus, HepDE19, 168 h

## CC(c1n[nH]c(=O)c2cc(F)c(F)cc12)N(C)C(=O)c1ccc2scnc2c1 (single isomer, unassigned) [Compound 85, N-(1-(6,7-difluoro-4-oxo-3,4-dihydrophthalazin-1-yl)ethyl)-N-methylbenzo[d]thiazole-5-carboxamide]
[1]
  EC50: 2220 nM

## CC(c1n[nH]c(=O)c2cc(F)c(F)cc12)N(C)C(=O)c1cc2cc(F)c(F)cc2[nH]1 (racemic) [Compound 50, N-(1-(6,7-difluoro-4-oxo-3,4-dihydrophthalazin-1-yl)ethyl)-5,6-difluoro-N-methyl-1H-indole-2-carboxamide]
[2]
  EC50: 40 nM

## CC(c1n[nH]c(=O)c2cc(F)c(F)cc12)N(C)C(=O)c1cc2c(Cl)cccn2c1 (racemic) [Compound 75, 8-chloro-N-(1-(6,7-difluoro-4-oxo-3,4-dihydrophthalazin-1-yl)ethyl)-N-methylindolizine-2-carboxamide]
[2]
  EC50: 60 nM

## CC(c1n[nH]c(=O)c2cc(F)c(F)cc12)N(C)C(=O)c1ccc2cn[nH]c2c1 (single isomer, unassigned) [Compound 113, N-(1-(6,7-difluoro-4-oxo-3,4-dihydrophthalazin-1-yl)ethyl)-N-methyl-1H-indazole-6-carboxamide]
[1]
  EC50: 2490 nM

## CC(c1n[nH]c(=O)c2cc(F)c(F)cc12)N(C)C(=O)c1cnc(C(F)(F)F)c(Cl)c1 (single isomer, unassigned) [Compound 93, 5-chloro-N-(1-(6,7-difluoro-4-oxo-3,4-dihydrophthalazin-1-yl)ethyl)-N-methyl-6-(trifluoromethyl)nicotinamide]
[1]
  EC50: 1660 nM

## CC(c1n[nH]c(=O)c2c(F)cccc12)N(C)C(=O)Nc1ccc(F)c(F)c1 (centres unmarked) [Compound 45, 3-(3,4-difluorophenyl)-1-(1-(5-fluoro-4-oxo-3,4-dihydrophthalazin-1-yl)ethyl)-1-methylurea]
[2]
  EC50: 790 nM

## CC(C)CN(C(=O)Nc1ccccc1)C(C)c1n[nH]c(=O)c2cc(F)c(F)cc12 (centres unmarked) [Compound 40, 1-(1-(6,7-difluoro-4-oxo-3,4-dihydrophthalazin-1-yl)ethyl)-1-isobutyl-3-phenylurea]
[3]
  EC50: 17 nM

## CC(c1n[nH]c(=O)c2cc(F)c(F)cc12)N(C)C(=O)c1cc2c(F)cccc2[nH]1 (racemic) [Compound 53, N-(1-(6,7-difluoro-4-oxo-3,4-dihydrophthalazin-1-yl)ethyl)-4-fluoro-N-methyl-1H-indole-2-carboxamide]
[2]
  EC50: 83 nM

## CC(c1n[nH]c(=O)c2cc(F)c(F)cc12)N(C)C(=O)Nc1ccc(F)c(C(F)F)c1 (racemic) [Compound 73, 1-(1-(6,7-difluoro-4-oxo-3,4-dihydrophthalazin-1-yl)ethyl)-3-(3-(difluoromethyl)-4-fluorophenyl)-1-methylurea]
[2]
  EC50: 20 nM

## CC(c1n[nH]c(=O)c2cc(F)c(F)cc12)N(C)C(=O)c1ccc2[nH]ncc2c1 (single isomer, unassigned) [Compound 111, N-(1-(6,7-difluoro-4-oxo-3,4-dihydrophthalazin-1-yl)ethyl)-N-methyl-1H-indazole-5-carboxamide]
[1]
  EC50: 8880 nM

## C[C@H](c1n[nH]c(=O)c2cc(F)c(F)cc12)N(C)C(=O)c1cc2ccccc2[nH]1 [Compound 46, (R)-N-(1-(6,7-difluoro-4-oxo-3,4-dihydrophthalazin-1-yl)ethyl)-N-methyl-1H-indole-2-carboxamide]
[3]
  EC50: 32 nM

## CC(c1n[nH]c(=O)c2cc(F)c(F)cc12)N(C)C(=O)c1ccc(C(F)(F)F)cc1 (racemic) [Compound 66, N-(1-(6,7-difluoro-4-oxo-3,4-dihydrophthalazin-1-yl)ethyl)-N-methyl-4-(trifluoromethyl)benzamide]
[2]
  EC50: 100 nM

## CC(c1nn(C)c(=O)c2cc(F)c(F)cc12)N(CCCO)C(=O)Nc1ccc(F)c(Cl)c1 (racemic) [Compound 25, 3-(3-chloro-4-fluorophenyl)-1-(1-(6,7-difluoro-3-methyl-4-oxo-3,4-dihydrophthalazin-1-yl)ethyl)-1-(3-hydroxypropyl)urea]
[2]
  EC50: 10 nM

## CCN(C(=O)c1cc2cc(F)ccc2[nH]1)C(C)c1n[nH]c(=O)c2cc(F)c(F)cc12 (racemic) [Compound 47, N-(1-(6,7-difluoro-4-oxo-3,4-dihydrophthalazin-1-yl)ethyl)-N-ethyl-5-fluoro-1H-indole-2-carboxamide]
[3]
  EC50: 41 nM

## CC(C)CN(C(=O)Nc1ccccc1)C(C)c1n[nH]c(=O)c2cc(F)c(F)cc12 (racemic) [Compound 28, 1-(1-(6,7-difluoro-4-oxo-3,4-dihydrophthalazin-1-yl)ethyl)-1-isobutyl-3-phenylurea]
[3]
  EC50: 12 nM

## CC(C)CN(C(=O)Nc1ccc(F)c(Cl)c1)C(C)c1nn(C)c(=O)c2cc(F)c(F)cc12 (racemic) [Compound 23, 3-(3-chloro-4-fluorophenyl)-1-(1-(6,7-difluoro-3-methyl-4-oxo-3,4-dihydrophthalazin-1-yl)ethyl)-1-isobutylurea]
[2]
  EC50: 3 nM

## CC(C)CN(C(=O)Nc1ccc(F)c(Cl)c1)C(C)c1nn(C)c(=O)c2ccccc12 (racemic) [Compound 8, 3-(3-chloro-4-fluorophenyl)-1-isobutyl-1-(1-(3-methyl-4-oxo-3,4-dihydrophthalazin-1-yl)ethyl)urea]
[2]
  EC50: 20 nM

## CC(c1n[nH]c(=O)c2cc(F)c(F)cc12)N(C)C(=O)c1cccc(C(F)F)c1 (racemic) [Compound 71, N-(1-(6,7-difluoro-4-oxo-3,4-dihydrophthalazin-1-yl)ethyl)-3-(difluoromethyl)-N-methylbenzamide]
[2]
  EC50: 220 nM

## CC(C)CN(C(=O)NC1CC1)C(C)c1nn(C)c(=O)c2cc(F)c(F)cc12 (racemic) [Compound 33, 3-cyclopropyl-1-(1-(6,7-difluoro-3-methyl-4-oxo-3,4-dihydrophthalazin-1-yl)ethyl)-1-isobutylurea]
[2]
  EC50: 6300 nM

## CC(C)CN(C(=O)Nc1ccccc1)C(C)c1n[nH]c(=O)c2cc(F)c(F)cc12 (single isomer, unassigned) [Compound 39, 1-(1-(6,7-difluoro-4-oxo-3,4-dihydrophthalazin-1-yl)ethyl)-1-isobutyl-3-phenylurea]
[3]
  EC50: 3700 nM

## CC(c1n[nH]c(=O)c2ccccc12)N(C)C(=O)Nc1ccc(F)c(Cl)c1 (racemic) [Compound 1, 3-(3-chloro-4-fluoro-phenyl)-1-methyl-1-[1-(4-oxo-3H-phthalazin-1-yl)ethyl]urea]
[2]
  EC50: 240 nM

## CC(c1n[nH]c(=O)c2cc(F)c(F)cc12)N(C)C(=O)c1cc(F)c(Cl)c(F)c1 (single isomer, unassigned) [Compound 95, 4-chloro-N-(1-(6,7-difluoro-4-oxo-3,4-dihydrophthalazin-1-yl)ethyl)-3,5-difluoro-N-methylbenzamide]
[1]
  EC50: 80 nM

## C[C@H](c1n[nH]c(=O)c2cc(F)c(F)cc12)N(C)C(=O)c1cc2c([nH]1)CCCC2 [Compound 58, (R)-N-(1-(6,7-difluoro-4-oxo-3,4-dihydrophthalazin-1-yl)ethyl)-N-methyl-4,5,6,7-tetrahydro-1H-indole-2-carboxamide]
[3]
  EC50: 120 nM

## CC(c1n[nH]c(=O)c2cc(F)c(F)cc12)N(C)C(=O)c1cc(F)c(Br)c(F)c1 (single isomer, unassigned) [Compound 100, 4-bromo-N-(1-(6,7-difluoro-4-oxo-3,4-dihydrophthalazin-1-yl)ethyl)-3,5-difluoro-N-methylbenzamide]
[1]
  EC50: 4690 nM

## CC(c1n[nH]c(=O)c2cc(F)c(F)cc12)N(C)C(=O)c1cc2c(C(F)F)cccn2c1 (single isomer, unassigned) [Compound 98, N-(1-(6,7-difluoro-4-oxo-3,4-dihydrophthalazin-1-yl)ethyl)-8-(difluoromethyl)-N-methylindolizine-2-carboxamide]
[1]
  EC50: 7440 nM

## CC(c1n[nH]c(=O)c2cc(F)c(F)cc12)N(C)C(=O)c1ccc2[nH]ncc2c1 (single isomer, unassigned) [Compound 110, N-(1-(6,7-difluoro-4-oxo-3,4-dihydrophthalazin-1-yl)ethyl)-N-methyl-1H-indazole-5-carboxamide]
[1]
  EC50: > 25000 nM

## C[C@H](c1nn(C)c(=O)c2cc(F)c(F)cc12)N(C)C(=O)Nc1ccc(F)c(Cl)c1 [Compound 36, (R)-3-(3-chloro-4-fluorophenyl)-1-[1-(6,7-difluoro-3-methyl-4-oxo-phthalazin-1-yl)ethyl]-1-methyl-urea]
[3]
  EC50: 13 nM

## CC(c1n[nH]c(=O)c2cc(F)c(F)cc12)N(C)C(=O)Nc1ccc(F)c(C#N)c1 (racemic) [Compound 76, 3-(3-cyano-4-fluorophenyl)-1-(1-(6,7-difluoro-4-oxo-3,4-dihydrophthalazin-1-yl)ethyl)-1-methylurea]
[2]
  EC50: 40 nM

## CC(c1n[nH]c(=O)c2cc(F)c(F)cc12)N(C)C(=O)c1cnc(C(F)(F)F)c(Cl)c1 (single isomer, unassigned) [Compound 92, 5-chloro-N-(1-(6,7-difluoro-4-oxo-3,4-dihydrophthalazin-1-yl)ethyl)-N-methyl-6-(trifluoromethyl)nicotinamide]
[1]
  EC50: > 25000 nM
